From paper PMC9005971, “Discovery of 2-(4-Acrylamidophenyl)-Quinoline-4-Carboxylic Acid Derivatives as Potent SIRT3 Inhibitors” (Frontiers in Chemistry, 2022)

Key:
MV4-11 cells = assay: In vitro antiproliferative CCK-8 assay, MV4-11; type: cell-based; conditions: Homo sapiens, 72 h, read-out: IC50 growth inhibition MV4-11
Experimental: The proliferation of THP-1, MOLM-13, SEM and MV4-11 cells was tested by CCK-8 assay. Briefly, cells were seeded in 96-well plate with about 5 × 10^3 cells in each well. The cells were treated with P6 or Ara-C (0–10 µM) after 24 h of incubation. CCK-8 reagent ([…]) was added to each well after 72 h of incubation, and cells were incubated at 37°C for 4 h. The light absorbance at 450 nm was measured by using an Opsys microplate reader (Dynex Technologirs, Chantilly, VA, United States). Results are illustrated as percent of cell viability normalized to DMSO-treated control cells.

SIRT2 = target: T1, SIRT2 (Homo sapiens, UniProt Q8IXJ6); assay: SIRT2 enzyme inhibitory assay (fluorescence); type: biochemical; conditions: for activity at 0.01 µM / activity at 0.033 µM / activity at 0.1 µM / activity at 0.333 µM / activity at 1 µM / activity at 3.3 µM / activity at 10 µM / activity at 33 µM / activity at 100 µM: SIRT2 enzyme activity; for activity at 0.01 µM: 10 nM; for activity at 0.033 µM: 33 nM; for activity at 0.1 µM: 100 nM; for activity at 0.333 µM: 333 nM
T1 sequence (Q8IXJ6 1-389): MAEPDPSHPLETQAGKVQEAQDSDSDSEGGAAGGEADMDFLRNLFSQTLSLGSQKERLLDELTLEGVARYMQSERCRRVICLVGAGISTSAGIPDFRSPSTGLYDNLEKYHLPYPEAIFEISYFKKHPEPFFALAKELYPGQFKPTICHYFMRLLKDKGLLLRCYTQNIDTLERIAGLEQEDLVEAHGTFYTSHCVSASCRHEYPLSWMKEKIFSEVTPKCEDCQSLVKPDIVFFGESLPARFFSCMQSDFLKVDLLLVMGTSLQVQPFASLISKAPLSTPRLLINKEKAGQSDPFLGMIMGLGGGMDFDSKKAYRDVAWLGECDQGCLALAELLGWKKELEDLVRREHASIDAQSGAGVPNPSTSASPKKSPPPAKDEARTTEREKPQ
Experimental: (§1) All of the enzymatic reactions were conducted at 37°C for 30 min. […] The compounds were diluted in 10% DMSO and 5 ul of the dilution was added to each reaction mixture (50 ul). The assay was performed by quantitating the amount of fluorescent product generated from the enzyme reaction. Fluorescence intensity is then analyzed at excitation wavelength of 350–360 nm and emission wavelength of 450–460 nm on a SpectraMax M5 microtiter plate reader. The IC50 values were calculated using Prism GraphPad software.

[1] = system: THP-1, MOLM-13, SEM and MV4-11 cells; assay: Cell morphology / differentiation (Wright-Giemsa staining); type: cell-based; conditions: 72 h
Experimental: THP-1, MOLM-13, SEM and MV4-11 cells were incubated with P6 or Ara-C for 72 h and then collected. Slides were made by cytospin and subsequently air dried. The cells were stained with Wright-Giemsa and observed for morphological features using a light microscope.

SIRT3 = target: T2, SIRT3 (Homo sapiens, UniProt Q9NTG7); assay: SIRT3 enzyme inhibitory assay (fluorescence); type: biochemical; conditions: for activity at 0.01 µM / activity at 0.033 µM / activity at 0.1 µM / activity at 0.333 µM / activity at 1 µM / activity at 3.3 µM / activity at 10 µM / activity at 33 µM / activity at 100 µM: SIRT3 enzyme activity; for activity at 0.01 µM: 10 nM; for activity at 0.033 µM: 33 nM; for activity at 0.1 µM: 100 nM; for activity at 0.333 µM: 333 nM
T2 sequence (Q9NTG7 1-399): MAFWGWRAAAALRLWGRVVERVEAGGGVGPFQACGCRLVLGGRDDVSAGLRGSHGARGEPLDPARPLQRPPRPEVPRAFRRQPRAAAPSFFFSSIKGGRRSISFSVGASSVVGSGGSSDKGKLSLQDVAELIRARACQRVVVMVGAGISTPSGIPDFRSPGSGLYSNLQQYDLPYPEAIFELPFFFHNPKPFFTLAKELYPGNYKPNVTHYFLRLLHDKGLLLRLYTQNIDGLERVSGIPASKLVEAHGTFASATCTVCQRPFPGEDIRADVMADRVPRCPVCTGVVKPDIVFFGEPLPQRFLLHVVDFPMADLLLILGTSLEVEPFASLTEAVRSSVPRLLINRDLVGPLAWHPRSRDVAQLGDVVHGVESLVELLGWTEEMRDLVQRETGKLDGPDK
Experimental: as §1

IC50 (MV4-11 cells): 1.9 µM
activity at 0.01 µM (SIRT2; Repeat1): 100%
activity at 0.01 µM (SIRT2; Repeat2): 98%
activity at 0.033 µM (SIRT2; Repeat1): 96%
activity at 0.033 µM (SIRT2; Repeat2): 100%
activity at 0.1 µM (SIRT2; Repeat1): 101%
activity at 0.1 µM (SIRT2; Repeat2): 101%
activity at 0.333 µM (SIRT2; Repeat1): 100%
activity at 0.333 µM (SIRT2; Repeat2): 95%
activity at 1 µM (SIRT2; Repeat1): 93%
activity at 1 µM (SIRT2; Repeat2): 83%
activity at 3.3 µM (SIRT2; Repeat1): 83%
activity at 3.3 µM (SIRT2; Repeat2): 73%
activity at 10 µM (SIRT2; Repeat1): 64%
activity at 10 µM (SIRT2; Repeat2): 65%
activity at 33 µM (SIRT2; Repeat1): 51%
activity at 33 µM (SIRT2; Repeat2): 48%
activity at 100 µM (SIRT2; Repeat1): 36%
activity at 100 µM (SIRT2; Repeat2): 39%
IC50 (SIRT2; mean of two experiments): 33.5 ± 1.6 µM
activity at 0.01 µM (SIRT3; Repeat1): 101%
activity at 0.01 µM (SIRT3; Repeat2): 99%
activity at 0.033 µM (SIRT3; Repeat1): 98%
activity at 0.033 µM (SIRT3; Repeat2): 97%
activity at 0.1 µM (SIRT3; Repeat1): 104%
activity at 0.1 µM (SIRT3; Repeat2): 95%
activity at 0.333 µM (SIRT3; Repeat1): 95%
activity at 0.333 µM (SIRT3; Repeat2): 88%
activity at 1 µM (SIRT3; Repeat1): 76%
activity at 1 µM (SIRT3; Repeat2): 74%
activity at 3.3 µM (SIRT3; Repeat1): 61%
activity at 3.3 µM (SIRT3; Repeat2): 59%
activity at 10 µM (SIRT3; Repeat1): 38%
activity at 10 µM (SIRT3; Repeat2): 38%
activity at 33 µM (SIRT3; Repeat1): 33%
activity at 33 µM (SIRT3; Repeat2): 31%
activity at 100 µM (SIRT3; Repeat1): 24%
activity at 100 µM (SIRT3; Repeat2): 21%
inhibition at 10 µM (SIRT3; dose of 10 μM, mean of three experiments, read-out: SIRT3 percentage inhibitory rate): 65.2 ± 3.26%
selectivity among SIRT1-3 (SIRT3; enzyme selectivity test, SIRT3 vs SIRT1 and SIRT2): can selectively inhibit SIRT3
IC50 (SIRT3; mean of two experiments): 7.2 ± 0.5 µM
Structure (SMILES): C=CC(=O)Nc1ccc(-c2cc(C(=O)N3CCN(c4ccccc4F)CC3)c3ccccc3n2)cc1 [Compound P6, N-(4-{4-[4-(2-Fluoro-phenyl)-piperazine-1-carbonyl]-quinolin-2-yl}-phenyl)-acrylamide]
cell differentiation / morphology [1]: induced the cell differentiation accompanied with morphological changes
